Assay results from patent US5070191A, “Demethylallosamidin and a process for production thereof” (Ajinomoto Co., Inc., priority 1989, dated 1991).
Each block holds one molecule with its values, some of them ahead of it.

How the values were obtained:
[1] = tested on: endo-type chitinase derived from insects; settings: background statement; cited from earlier work
[2] = molecular target: T1, fungi-derived chitinase (chitinase solution from baker's yeast) (Saccharomyces cerevisiae, UniProt P29029); assay: Determination of chitinase inhibitory activity (3H-chitin hydrolysis); format: biochemical; settings: for Inhibition Rate (%): 37° C., 3 hours, pH 3.0
T1 construct: The cells were removed by centrifugation (0° C., 10 mins., 12,000 g); The resulting supernatant was concentrated to 200 ml by ultrafiltration; host or cells: baker's yeast; concentrated, acid-treated supernatant of shaken cells
T1 sequence (P29029 21-562): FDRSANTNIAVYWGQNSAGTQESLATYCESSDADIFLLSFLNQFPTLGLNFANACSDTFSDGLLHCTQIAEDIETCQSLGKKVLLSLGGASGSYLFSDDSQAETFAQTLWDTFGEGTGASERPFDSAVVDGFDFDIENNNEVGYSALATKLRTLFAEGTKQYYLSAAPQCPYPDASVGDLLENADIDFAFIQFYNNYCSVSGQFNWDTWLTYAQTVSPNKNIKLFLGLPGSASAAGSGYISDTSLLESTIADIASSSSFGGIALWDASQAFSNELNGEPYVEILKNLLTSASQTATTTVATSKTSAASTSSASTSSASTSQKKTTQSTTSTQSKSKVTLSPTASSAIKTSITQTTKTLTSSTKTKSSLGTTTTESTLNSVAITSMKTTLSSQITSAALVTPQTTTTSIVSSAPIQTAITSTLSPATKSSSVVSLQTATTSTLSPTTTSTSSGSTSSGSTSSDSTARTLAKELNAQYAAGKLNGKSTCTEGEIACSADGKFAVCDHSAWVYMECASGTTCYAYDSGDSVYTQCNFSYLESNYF
Procedure: A Sakaguchi flask of 2 liters was charged with 1 liter of 25 mM MES (Nakarai Chemical Co., Ltd.) buffer containing 0.1% β-mercaptoethanoland 200 g of baker's yeast (Kanegafuchi Chemical Industry Co., Ltd.) followed by shaking at 30° C. at 120 spm for 2 hours. The cells were removed by centrifugation (0° C., 10 mins., 12,000 g). The resulting supernatant was concentrated to 200 ml by ultrafiltration (TOYO ULTRAFILTER UP-20). After concentration, 400 ml of citrate buffer (0.15 M citric acid+0.15 M sodium citrate, pH 3.0) was added to the concentrate. After the formed precipitates were removed by centrifugation (0° C., 10 mins., 12,000 g), the resulting supernatant was concentrated to 40 ml by ultrafiltration. The concentrate was stored at 4° C. and used as the chitinase solution in the assay.
10 ml of 10% acetic acid was slowly added to 0.5 g of chitosan (PFANSTIEHL LABORATORIES INC.), then the mixture was kneaded in a mortar to become gel-like. After standing at room temperature overnight, 45 ml of methanol was added while thoroughly stirring. The mixture was filtered through a gauze and 0.75 ml of ^3 H-labeled acetic anhydride (NET 018A10 ACETIC ANHYDRIDE 5 mCi) was added to the filtrate obtained. The formed agar-like chitin was homogenized with a homogenizer, collected on a glass filter (Whatmann GF/B) and suspended in 10 ml of citrate buffer (pH 3.0). This chitin suspension (2.3 μCi/ml chitin suspension) was used as a substrate for assay.
In an Epfendorf tube, 90 μl of the chitinase solution and 10 μl of the ^3 H-chitin suspension were charged and reacted at 37° C. for 3 hours. In this case, 90 μl of citrate buffer (pH 3.0) was used in place of 90 μl of the enzyme solution as a control sample and reacted in a similar manner. After the reaction, 100 μl of 10% trichloroacetic acid was added and the reaction solution was passed through a glass filter (Whatmann GF/B). After 10 ml of scintillant solution was added to the obtained filtrate, its radioactivity (dpm) was determined. The difference between the determined value and the control sample indicated chitinase activity. The scintillant solution was prepared by dissolving 4 g of Ominiflour (Daiichi Chemical) in 500 ml of toluene and adding 500 ml of Triton X-100 (Nakarai Chemical Co., Ltd.) to the solution.
When allosamidin and demethylallosamidin were added, both were dissolved in 0.1 N acetic acid solution and 10 μl each of the solutions having the respective concentrations was added to the reaction system described above. Also, 10 μl of 0.1 N acetic acid was added to the blank and to the system in which no inhibitor was added, followed by the reaction described above.
The inhibitory activity was calculated according to the equation below: [formula] wherein: A=chitinase activity (dpm) when no inhibitor was added.
B=chitinase activity (dmp) when the inhibitor was added.
In any of the measurements, three series of runs were used and a mean value was determined.

[3] = molecular target: T1, fungi-derived chitinase (chitinase solution from baker's yeast); settings: background statement; cited from earlier work
[4] = tested on: Mouse ascitic mammary cancer cells FM3A; assay: Cytotoxicity, mouse ascitic mammary cancer cells FM3A; format: cell-based; settings: 1 mg/ml, 37° C., 4 days
Procedure: (i) Mouse ascitic mammary cancer cells FM3A were inoculated in 1×10^5 /ml on Dulbecco modified MEM medium supplemented with 10% fetal calf serum and demethylallosamidin was added thereto in a concentration of 1 mg/ml followed by stationary culture at 37° C. for 4 days.

[5] = tested on: Fusarium nivale ATCC 42308; assay: Influence on growth of mold (length and branching degree of hyphae); format: cell-based; set-up: Length Hypha: unit not given here; settings: after 32 hours; for Branching Degree of Hypha (mean value of branch intervals of hyphae) / Length Hypha: 28° C.
Procedure: Demethylallosamidin was added to the culture medium of mold to examine its influence. Firstly, Fusarium nivale ATCC 42308 was precultured in PDA medium (manufactured by Nissui Pharmaceutical Co., Ltd.) to form spores. The spores were suspended in physiological saline. The suspension was filtered through cotton to give a spore suspension free of hyphae. A fixed amount of the resulting suspension was inoculated on a medium supplemented with demethylallosamidin (0.80 μg/ml, 0.16 μg/ml) and on demethylallosamidin-free medium (control), respectively. […] The observation was performed as follows: sampling was made over definite periods of time, microscopic photographs were taken and the length and branching degree of hyphae were determined. The branching degree of hyphae is a mean value of branch intervals of hyphae. In any case, incubation was carried out at 28° C. at 120 strokes/min by charging 1 ml each of medium (0.03% of yeast extract, 0.03% of malt extract; both manufactured by Daigo Nutrient Co., Ltd.) and 0.1% of glucose in a testing tube with a cotton stopper (diameter of 11 mm).

[6] = tested on: Human leukemia cells K562; assay: Cytotoxicity, human leukemia cells K562; format: cell-based; settings: 1 mg/ml, 37° C., 4 days
Procedure: (ii) Human leukemia cells K562 were inoculated in 1×10^5 /ml on FRMI 1640 medium supplemented with 10% fetal calf serum and demethylallosamidin was added thereto in a concentration of 1 mg/ml followed by stationary culture at 37° C. for 4 days.

[7] = addition of demethylallosamidin

Compound: CC(=O)N[C@H]1[C@H](O[C@H]2[C@@H](O)[C@@H](NC(C)=O)[C@H](O[C@H]3[C@H](O)[C@H]4N=C(N(C)C)O[C@H]4[C@@H]3CO)O[C@@H]2CO)O[C@H](CO)[C@@H](O)[C@H]1O [Allosamidin, allosamidin]
- inhibition of endo-type chitinase derived from insects (in words) [1]: strongly inhibits
- Inhibition Rate (%) ([2]; amount added 1 μg): 36.0%
- Inhibition Rate (%) ([2]; amount added 2 μg): 47.6%
- Inhibition Rate (%) ([2]; amount added 4 μg): 58.5%
- inhibitory activity against chitinase derived from fungi (in words, background) [3]: weakly inhibitory activity

- inhibitory activity against fungi-derived chitinase (in words) [2]: potent inhibitory activity
- Inhibition Rate (%) ([2]; amount added 0.05 μg): 61.1%
- Inhibition Rate (%) ([2]; amount added 0.1 μg): 73.9%
- Inhibition Rate (%) ([2]; amount added 0.2 μg): 75.2%
- Inhibition Rate (%) ([2]; amount added 0.4 μg): 84.6%
- Inhibition Rate (%) ([2]; amount added 0.8 μg): 87.1%
- inhibitory activity per unit weight relative to allosamidin ([2]; fungi-derived chitinase, versus allosamidin): ≤ 100 times
Compound: CNC1=NC2C(O)C(OC3OC(CO)C(OC4OC(CO)C(O)C(O)C4NC(C)=O)C(O)C3NC(C)=O)C(CO)C2O1 (single isomer, unassigned) [Demethylallosamidin, demethylallosamidin]
- growth inhibition (microscopic observation) [4]: no growth inhibition
- growth inhibition (microscopic observation) ([4]; listed as demethylallosamidin): no growth inhibition was noted at all
- Branching Degree of Hypha (mean value of branch intervals of hyphae) ([5]; 0.16 μg/ml): 72.8 μm
- Length Hypha ([5]; 0.16 μg/ml): 364
- Branching Degree of Hypha (mean value of branch intervals of hyphae) ([5]; 0.80 μg/ml): 74.2 μm
- Length Hypha ([5]; 0.80 μg/ml): 576
- branching degree of hyphae (in words) [5, 7]: decreased
- length of hyphae (in words) [5, 7]: obviously increased
- growth inhibition (microscopic observation) [6]: no growth inhibition
- growth inhibition (microscopic observation) ([6]; listed as demethylallosamidin): no growth inhibition was noted at all
